{"source": "patent US9642362B2", "about": "“Antimicrobial compositions and uses thereof” (CASCADES CANADA ULC, priority 2012, dated 2017)", "key": {"E. coli ATCC 11229 [1]": {"system": "E. coli ATCC 11229", "experiment": "Agar diffusion test of pre-soaked paper towel", "type": "cell-based, Escherichia coli", "details": "FIG. 5", "from_the_text": "The antimicrobial activity of the compositions as described herein on a cellulosic substrate could be determined by soaking the cellulosic substrate in the compositions to be tested and plating the cellulosic substrate on agar. An agar diffusion test could then be performed.\nThe agar well diffusion method previously described by Tagg et al. 1976 was applied as a rapid method to detect the inhibitory activity of the compounds directly (as a solution) or after immobilization on paper towel. Briefly, 25 mL of sterile TSB with 0.8% (w/v) agar was seeded with 150 μL of an overnight culture of one of the target sensitive strains and poured into a sterile Petri dish (Starstedt Inc., Montreal, Canada). The Petri dishes were kept for 20 min at room temperature under sterile conditions to allow agar solidification. Wells 7 mm in diameter were then cut in the solidified agar using the wide end of a sterile 5-mL pipette. Each well was filled with 80 μL of the compound or mixture to be tested. In the case of pre-soaked paper towel, circles 1 cm in diameter were cut and deposited directly on the solidified agar. All plates were incubated at 30° C. for 18 h and the diameter of the zone of inhibition was measured.\nThe aim of this experiment was to study the inhibition of bacterial growth by the antimicrobial Mix I and II in association with paper towels."}, "Listeria ivanovii HPB28": {"system": "Listeria ivanovii HPB28", "experiment": "Growth curves by microplate microdilution method", "type": "cell-based", "details": "for Reduction of growth, taken separately compared with combined (Mix I): FIG. 2B, lactic acid (0.125%), citric acid (0.0625%) and pediocin; for Reduction of growth, taken separately compared with combined (Mix II): FIG. 1B; for Inhibition (growth curves): FIGS. 1B, 2, compounds alone at citric acid 0.25%, lactic acid 0.25%, reuterin 1.25%, or combined as Mix", "procedure": "(§1) The inhibitory activity of the various antimicrobial compounds alone or in combination was assayed using the microtiter plate critical dilution method with two-fold serial dilutions in TSB (Turcotte et al., 2004). The 100-μL carry-over volume was drawn into the multi-channel pipette four times between each dilution. Wells were then seeded with 40 μL of target strain overnight culture diluted 1,000 fold. The plates (MIC-2000 U-Bottom Microtiter® Plates; Thermo Labsystems, Franklin, Mass., USA) were incubated at 30° C. for 18 h before reading the optical density at 650 nm using a Thermomax microplate reader (Molecular Devices, Opti-Resources, Charny, QC, Canada).\n(§2) One arbitrary unit (AU) was defined as a 100-μL portion of the highest dilution of tested sample that inhibited growth in a well after 18 h of incubation (Daba et al, 1993). […] The number of AU per ml is thus […], where n=number of inhibited wells."}, "E. coli ATCC 11229 [2]": {"system": "E. coli ATCC 11229", "experiment": "Growth curves by microplate microdilution method", "type": "cell-based, Escherichia coli", "details": "for Reduction of growth, taken separately compared with combined (Mix II): FIG. 1A; for Inhibition (growth curves): FIGS. 1A, 2, compounds alone at citric acid 0.25%, lactic acid 0.25%, reuterin 1.25%, or combined as Mix", "procedure": "as §1, §2"}}, "note": "Where no end group is shown, it is not given here.", "data": [{"molecule": "CC(=O)O", "note": "[acetic acid]", "values": [{"measurement": "Inhibition of bacterial growth, individually compared with Mix I and Mix II", "setting": "E. coli ATCC 11229 [1]", "result": "do not inhibit E. Coli ATCC 11229 bacterial growth as efficiently as Mix I"}]}, {"molecule": "pediocin: Fresh pediocin extract; class IIa bacteriocin produced by lactic acid bacteria (KYYGNGVTCGKHSCSVDWGKATTCIINNGAMAWATGGHQGNHKC; ends and bridges not checked; cysteine pairing not given here; UniProt P29430 19-62, looked up)", "values": [{"measurement": "Inhibition of bacterial growth, individually compared with Mix I and Mix II", "setting": "E. coli ATCC 11229 [1]", "result": "do not inhibit E. Coli ATCC 11229 bacterial growth as efficiently as Mix I"}, {"measurement": "Reduction of growth, taken separately compared with combined (Mix I)", "setting": "Listeria ivanovii HPB28", "result": "do not reduce the growth of Listeria ivanovii HPB28 as efficiently"}]}, {"molecule": "O=C(O)CC(O)(CC(=O)O)C(=O)O", "note": "[citric acid]", "values": [{"measurement": "Reduction of growth, taken separately compared with combined (Mix II)", "setting": "Listeria ivanovii HPB28", "result": "do not reduce the growth of E. Coli ATCC 11229 or Listeria ivanovii HPB28 as efficiently"}, {"measurement": "Reduction of growth, taken separately compared with combined (Mix I)", "setting": "Listeria ivanovii HPB28", "result": "do not reduce the growth of Listeria ivanovii HPB28 as efficiently"}, {"measurement": "Inhibition (growth curves)", "setting": "Listeria ivanovii HPB28", "result": "partial and non-significant inhibition"}, {"measurement": "Reduction of growth, taken separately compared with combined (Mix II)", "setting": "E. coli ATCC 11229 [2]", "result": "do not reduce the growth of E. Coli ATCC 11229 or Listeria ivanovii HPB28 as efficiently"}, {"measurement": "Inhibition (growth curves)", "setting": "E. coli ATCC 11229 [2]", "result": "partial and non-significant inhibition"}]}, {"molecule": "CC(O)C(=O)O", "note": "(centres unmarked) [lactic acid]", "values": [{"measurement": "Inhibition of bacterial growth, individually compared with Mix I and Mix II", "setting": "E. coli ATCC 11229 [1]", "result": "do not inhibit E. Coli ATCC 11229 bacterial growth as efficiently as Mix I"}, {"measurement": "Reduction of growth, taken separately compared with combined (Mix II)", "setting": "Listeria ivanovii HPB28", "result": "do not reduce the growth of E. Coli ATCC 11229 or Listeria ivanovii HPB28 as efficiently"}, {"measurement": "Reduction of growth, taken separately compared with combined (Mix I)", "setting": "Listeria ivanovii HPB28", "result": "do not reduce the growth of Listeria ivanovii HPB28 as efficiently"}, {"measurement": "Inhibition (growth curves)", "setting": "Listeria ivanovii HPB28", "result": "partial and non-significant inhibition"}, {"measurement": "Reduction of growth, taken separately compared with combined (Mix II)", "setting": "E. coli ATCC 11229 [2]", "result": "do not reduce the growth of E. Coli ATCC 11229 or Listeria ivanovii HPB28 as efficiently"}, {"measurement": "Inhibition (growth curves)", "setting": "E. coli ATCC 11229 [2]", "result": "partial and non-significant inhibition"}]}]}
